Counter-ions that a name gives are not always drawn.

The IC50 is the concentration that inhibits the measured activity by half. Read a high IC50 as lower potency.

For this assay, the target named is T1, H^+/K^+-ATPase (Sus scrofa, UniProt P19156).
T1 construct: used as an enzyme source of the in vitro enzyme reaction assay of proton pump; from tissue; host or cells: hog gastric fundic mucosa (membrane vesicles, lyophilized)
T1 sequence (P19156 2-1034 limits assumed): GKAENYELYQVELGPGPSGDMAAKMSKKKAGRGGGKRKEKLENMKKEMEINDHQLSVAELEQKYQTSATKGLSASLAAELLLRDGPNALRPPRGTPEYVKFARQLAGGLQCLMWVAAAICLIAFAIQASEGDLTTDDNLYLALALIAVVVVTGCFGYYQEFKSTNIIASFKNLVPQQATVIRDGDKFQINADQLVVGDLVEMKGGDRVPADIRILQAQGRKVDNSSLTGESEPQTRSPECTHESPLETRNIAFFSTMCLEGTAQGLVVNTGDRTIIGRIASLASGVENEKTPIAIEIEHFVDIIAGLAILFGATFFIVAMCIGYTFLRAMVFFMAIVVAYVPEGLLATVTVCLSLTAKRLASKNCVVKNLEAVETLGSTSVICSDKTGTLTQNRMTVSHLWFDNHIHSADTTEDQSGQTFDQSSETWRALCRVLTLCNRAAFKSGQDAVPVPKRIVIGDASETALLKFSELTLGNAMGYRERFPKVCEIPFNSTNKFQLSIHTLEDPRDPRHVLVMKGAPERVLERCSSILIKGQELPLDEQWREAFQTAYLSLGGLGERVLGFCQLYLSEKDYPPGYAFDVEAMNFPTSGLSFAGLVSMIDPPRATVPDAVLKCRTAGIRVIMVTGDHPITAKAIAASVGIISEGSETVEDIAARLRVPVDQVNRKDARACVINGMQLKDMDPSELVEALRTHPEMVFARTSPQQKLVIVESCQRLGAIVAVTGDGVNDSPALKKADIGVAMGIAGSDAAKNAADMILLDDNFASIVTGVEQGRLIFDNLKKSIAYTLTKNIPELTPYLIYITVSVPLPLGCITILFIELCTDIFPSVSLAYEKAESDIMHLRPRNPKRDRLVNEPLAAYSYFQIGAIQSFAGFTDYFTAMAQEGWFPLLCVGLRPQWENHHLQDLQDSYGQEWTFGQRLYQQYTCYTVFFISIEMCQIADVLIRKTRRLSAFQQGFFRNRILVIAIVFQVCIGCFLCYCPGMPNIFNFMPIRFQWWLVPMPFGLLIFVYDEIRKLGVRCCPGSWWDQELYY
T1 sequence (P18434 whole entry partner): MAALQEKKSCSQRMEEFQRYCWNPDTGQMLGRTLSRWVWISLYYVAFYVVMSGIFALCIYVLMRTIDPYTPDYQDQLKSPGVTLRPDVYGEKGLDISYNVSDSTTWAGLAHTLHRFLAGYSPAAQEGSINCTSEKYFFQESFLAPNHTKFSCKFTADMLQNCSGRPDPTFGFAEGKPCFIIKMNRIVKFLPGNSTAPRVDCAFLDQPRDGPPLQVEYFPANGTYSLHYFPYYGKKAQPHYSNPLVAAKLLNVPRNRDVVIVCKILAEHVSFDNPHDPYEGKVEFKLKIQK
Briefly: Inhibitory effects on proton pump (H^+/K^+-ATPase) activity, hog gastric vesicles. It counts as biochemical. As to conditions: K^+ stimulated H^+/K^+-ATPase activity, hog gastric vesicle, Pi measured at 620 nm. As for the experimental part:
Preparation of Gastric Proton Pump Vesicles
The hog fundic regions containing parietal and peptic cells were scraped with slide-glass. The collected cells were suspended in 10 ml of 0.25M sucrose buffer and homogenized using a tight-fitting Teflon-glass homogenizer. The homogenate was centrifuged for 35 min at 8,000 rpm and the pellet was discarded. The supernatant was further centrifuged for 75 min at 25,000 rpm. The resulting pellets were re-suspended in the sucrose buffer (10 ml), and then the suspension was laid onto discontinuous density gradients consisting of 0.25M sucrose buffer and isolation medium containing 9% Ficoll (w/w). After being centrifuged for 3 hours and 15 minutes at 100,000×g, the material at the interface of sucrose buffer and Ficoll solution was collected and then centrifuged for 40 minutes at 100,000×g. The resulting pellets were re-suspended in 1 ml of 5 mM Hepes/Tris buffer (pH 6.1). This material was lyophilized and stored at −70° C. and used as an enzyme source of the in vitro enzyme reaction assay of proton pump.
1-2. Measurement of Inhibitory Effects on Proton Pump (H+/K+-ATPase) activity
The inhibitory effects of the compounds of the present invention against proton pump activity were evaluated in 96-well plate. In this assay, the K^+ specific H^+/K^+-ATPase activity was calculated based on the difference between the activity of H^+/K^+-ATPase activity with K^+ and without K^+ ion. In 96-well plate, 1% dimethylsulfoxide (DMSO) in buffer was added to negative and positive control groups and the diluted compounds of the present invention in buffer were added to test group. All assays were performed in 100 μl reaction volume at room temperature, and the hog gastric vesicle was kept in ice before use. At the beginning of the reaction, 10 μl of reaction buffer containing 1% DMSO was added to the negative and positive control groups and to each concentration of compounds in the test group. Then lyophilized vesicle in 5 mM Pipes/Tris buffer (pH 6.1) was pre-incubated in the presence of various concentrations of test compounds. After a 5 minute incubation, negative and positive buffers were respectively added to the previous reaction mixture. As the substrate, ATP was added to the reaction buffer, and incubated for 30 minutes at 37° C. Enzymatic activity was stopped by the addition of colorimetric reagent (2× malachite green, 1× ammonium molybdate, 1× polyvinyl alcohol, 2× H2O) and the amount of mono phosphate (Pi) in the reaction was measured at 620 nm using the micro plate reader (Genios Pro, TECAN). The difference between the Pi production with K^+ and without K^+ is taken as K^+ stimulated H^+/K^+-ATPase activity.
Regarding `CC(=O)OCCn1c(C)c(C)c2nccc(OCc3ccc(Cl)cc3)c21` [Example 85, 1-(2-acetoxyethyl)-7-(4-chlorobenzyloxy)-2,3-dimethyl-1H-pyrrolo[3,2-b]pyridine hydrochloride], the IC50 amounted to 170 nM. The figure for `Cc1c(C)n(CC2OCCO2)c2c(OCc3ccc(Cl)cc3)ccnc12` [Example 87, 7-(4-chlorobenzyloxy)-1-(1,3-dioxolan-2-ylmethyl)-2,3-dimethyl-1H-pyrrolo[3,2-b]pyridine hydrochloride] is 160 nM; for `Cc1c(C)n(Cc2ccc(Cl)cc2)c2c(OCc3ccc(Cl)cc3)ccnc12` [Example 88, 7-(4-chlorobenzyloxy)-1-(4-chlorobenzyl)-2,3-dimethyl-1H-pyrrolo[3,2-b]pyridine hydrochloride] it is 670 nM; for `Cc1c(C)n(Cc2ccccc2F)c2c(OCc3ccc(Cl)cc3)ccnc12` [Example 89, 7-(4-chlorobenzyloxy)-1-(2-fluorobenzyl)-2,3-dimethyl-1H-pyrrolo[3,2-b]pyridine hydrochloride] it is 340 nM. With `CCn1c(C)c(C)c2nccc(OCc3ccc(Cl)cc3)c21` [Example 90, 7-(4-chlorobenzyloxy)-1-ethyl-2,3-dimethyl-1H-pyrrolo[3,2-b]pyridine hydrochloride] the figure was 140 nM; with `Cc1c(C)n(Cc2ccc(F)cc2)c2c(OCc3ccc(Cl)cc3)ccnc12` [Example 91, 7-(4-chlorobenzyloxy)-1-(4-fluorobenzyl)-2,3-dimethyl-1H-pyrrolo[3,2-b]pyridine hydrochloride], 460 nM. In the case of `COc1cccc(Cn2c(C)c(C)c3nccc(OCc4ccc(Cl)cc4)c32)c1` [Example 92, 7-(4-chlorobenzyloxy)-1-(3-methoxybenzyl)-2,3-dimethyl-1H-pyrrolo[3,2-b]pyridine hydrochloride], the IC50 worked out at 50 nM. The figure for `Cc1c(C)n(Cc2cccc(F)c2)c2c(OCc3ccc(Cl)cc3)ccnc12` [Example 93, 7-(4-chlorobenzyloxy)-1-(3-fluorobenzyl)-2,3-dimethyl-1H-pyrrolo[3,2-b]pyridine hydrochloride] is 50 nM. In the case of `Cc1cccc(Cn2c(C)c(C)c3nccc(OCc4ccc(Cl)cc4)c32)c1` [Example 95, 7-(4-chlorobenzyloxy)-1-(3-methylbenzyl)-2,3-dimethyl-1H-pyrrolo[3,2-b]pyridine hydrochloride], the IC50 stood at 520 nM. Take `Cc1ccc(Cn2c(C)c(C)c3nccc(OCc4ccc(Cl)cc4)c32)cc1` [Example 96, 7-(4-chlorobenzyloxy)-1-(4-methylbenzyl)-2,3-dimethyl-1H-pyrrolo[3,2-b]pyridine hydrochloride]: the IC50 was 130 nM. The figure for `C=CCn1c(C)c(C)c2nccc(OCc3ccc4c(c3)OCO4)c21` [Example 98, 1-allyl-7-(benzo[1,3]dioxol-5-ylmethoxy)-2,3-dimethyl-1H-pyrrolo[3,2-b]pyridine hydrochloride] is 620 nM.

In the case of `COCCn1c(C)c(C)c2nccc(OCc3ccc4c(c3)OCO4)c21` [Example 99, 7-(benzo[1,3]dioxol-5-ylmethoxy)-1-(2-methoxyethyl)-2,3-dimethyl-1H-pyrrolo[3,2-b]pyridine hydrochloride], the IC50 stood at 630 nM. The figure for `Cc1c(C)n(CC2OCCO2)c2c(OCc3ccc4c(c3)OCO4)ccnc12` [Example 100, 7-(benzo[1,3]dioxol-5-ylmethoxy)-1-([1,3]-dioxolan-2-ylmethyl)-2,3-dimethyl-1H-pyrrolo[3,2-b]pyridine hydrochloride] is 2820 nM.

As to `Cc1c(C)n(Cc2ccccc2F)c2c(OCc3ccc4c(c3)OCO4)ccnc12` [Example 101, 7-(benzo[1,3]dioxol-5-ylmethoxy)-1-(2-fluorobenzyl)-2,3-dimethyl-1H-pyrrolo[3,2-b]pyridine hydrochloride], the IC50 is 1010 nM. With `Cc1cccc(Cn2c(C)c(C)c3nccc(OCc4ccc5c(c4)OCO5)c32)c1` [Example 113, 7-(benzo[1,3]dioxol-5-ylmethoxy)-2,3-dimethyl-1-(3-methylbenzyl)-1H-pyrrolo[3,2-b]pyridine hydrochloride] the figure was 1420 nM; with `Cc1ccc(Cn2c(C)c(C)c3nccc(OCc4ccc5c(c4)OCO5)c32)cc1` [Example 114, 7-(benzo[1,3]dioxol-5-ylmethoxy)-1-(4-methylbenzyl)-2,3-dimethyl-1H-pyrrolo[3,2-b]pyridine hydrochloride], 70 nM. With `Cc1c(C)n(Cc2ccccc2)c2c(OCc3ccc4c(c3)OCO4)ccnc12` [Example 115, 7-(benzo[1,3]dioxol-5-ylmethoxy)-1-benzyl-2,3-dimethyl-1H-pyrrolo[3,2-b]pyridine hydrochloride] the figure was 130 nM. `Cc1c(C)n(Cc2cccc(F)c2)c2c(OCc3ccc4c(c3)OCO4)ccnc12` [Example 116, 7-(benzo[1,3]dioxol-5-ylmethoxy)-1-(3-fluorobenzyl)-2,3-dimethyl-1H-pyrrolo[3,2-b]pyridine hydrochloride] yielded an IC50 of 150 nM. The figure for `CCn1c(C)c(C)c2nccc(OCc3ccc4c(c3)OCO4)c21` [Example 117, 7-(benzo[1,3]dioxol-5-ylmethoxy)-1-ethyl-2,3-dimethyl-1H-pyrrolo[3,2-b]pyridine hydrochloride] is 720 nM; for `Cc1c(C)n(Cc2ccc(F)cc2)c2c(OCc3ccc4c(c3)OCO4)ccnc12` [Example 118, 7-(benzo[1,3]dioxol-5-ylmethoxy)-1-(4-fluorobenzyl)-2,3-dimethyl-1H-pyrrolo[3,2-b]pyridine hydrochloride] it is 460 nM.

`COc1cccc(Cn2c(C)c(C)c3nccc(OCc4ccc5c(c4)OCO5)c32)c1` [Example 119, 7-(benzo[1,3]dioxol-5-ylmethoxy)-1-(3-methoxybenzyl)-2,3-dimethyl-1H-pyrrolo[3,2-b]pyridine hydrochloride]: the IC50 was determined as 230 nM. In the case of `Cc1c(C)n(CC(C)C)c2c(OCc3ccc4c(c3)OCO4)ccnc12` [Example 120, 7-(benzo[1,3]dioxol-5-ylmethoxy)-1-isobutyl-2,3-dimethyl-1H-pyrrolo[3,2-b]pyridine hydrochloride], the IC50 came to 120 nM. The figure for `Cc1c(C)n(CC2CC2)c2c(OCc3ccc4c(c3)OCO4)ccnc12` [Example 121, 7-(benzo[1,3]dioxol-5-ylmethoxy)-1-cyclopropylmethyl-2,3-dimethyl-1H-pyrrolo[3,2-b]pyridine hydrochloride] is 320 nM; for `COCCn1c(C)c(C)c2nccc(OCc3ccc(F)cc3)c21` [Example 122, 7-(4-fluorobenzyloxy)-1-(2-methoxyethyl)-2,3-dimethyl-1H-pyrrolo[3,2-b]pyridine] it is 20 nM; for `COCCn1c(C)c(C)c2nccc(OCc3ccc(F)cc3)c21` [Example 123, 7-(4-fluorobenzyloxy)-1-(2-methoxyethyl)-2,3-dimethyl-1H-pyrrolo[3,2-b]pyridine methanesulfonate] it is 60 nM.

`COCCn1c(C)c(C)c2nccc(OCc3ccc(F)cc3)c21` [Example 124, 7-(4-fluorobenzyloxy)-1-(2-methoxyethyl)-2,3-dimethyl-1H-pyrrolo[3,2-b]pyridine benzenesulfonate] came in with an IC50 of 50 nM.

As to `COCCn1c(C)c(C)c2nccc(OCc3ccc(F)cc3)c21` [Example 125, 7-(4-fluorobenzyloxy)-1-(2-methoxyethyl)-2,3-dimethyl-1H-pyrrolo[3,2-b]pyridine p-toluenesulfonate], the IC50 worked out at 50 nM. The figure for `COCCn1c(C)c(C)c2nccc(OCc3ccc(F)cc3)c21` [Example 126, 7-(4-fluorobenzyloxy)-1-(2-methoxyethyl)-2,3-dimethyl-1H-pyrrolo[3,2-b]pyridine nitrate] is 50 nM; for `COCCn1c(C)c(C)c2nccc(OCc3ccc(F)cc3)c21` [Example 127, 7-(4-fluorobenzyloxy)-1-(2-methoxyethyl)-2,3-dimethyl-1H-pyrrolo[3,2-b]pyridine sulfate] it is 40 nM; for `COCCn1c(C)c(C)c2nccc(OCc3ccc(F)cc3)c21` [Example 128, 7-(4-fluorobenzyloxy)-1-(2-methoxyethyl)-2,3-dimethyl-1H-pyrrolo[3,2-b]pyridine maleate] it is 50 nM. With `COCCn1c(C)c(C)c2nccc(OCc3ccc(F)cc3)c21` [Example 129, 7-(4-fluorobenzyloxy)-1-(2-methoxyethyl)-2,3-dimethyl-1H-pyrrolo[3,2-b]pyridine phosphate] the figure was 40 nM.

For the origin of these results see patent US7642269B2, “Pyrrolo[3,2-B]pyridine derivatives and processes for the preparation thereof” (Yuhan Corporation, priority 2005, dated 2010).
